According to ChEMBL document CHEMBL5385861, “Development of novel hydrazidoarylaminopyrimidine-based BTK/FLT3 dual inhibitors with potent in vivo anti-hematological malignancies effects” (Eur J Med Chem, 2023):
Calls of active or inactive are those of the source. The calls are words filed in the database; no cut-off is given here.

How the values were obtained:
JeKo-1 [1] = assay: cells; conditions: Homo sapiens, JeKo-1, 72 h
Description: Antiproliferative activity against human JeKo-1 cells assessed as inhibition of cell growth incubated for 72 hrs by CCK8 assay

in vitro [2] = conditions: human, Caco-2
Description: Apparent permeability across apical to basolateral side in human Caco-2 cells incubated for 120 mins by LC-MS/MS analysis

in vitro [3] = conditions: human, Caco-2; remark: listed apart in the source
Description: Apparent permeability across basolateral to apical side in human Caco-2 cells incubated for 120 mins by LC-MS/MS analysis

P-glycoprotein = assay: in vitro; conditions: human, Caco-2
Description: Efflux ratio of apparent permeability across basolateral to apical side over apical to basolateral side in human Caco-2 cells incubated for 120 mins in presence of P-glycoprotein by LC-MS/MS analysis

JeKo-1 [4] = assay: Antitumor activity against human JeKo-1 cells xenografted NOD/SCID mouse assessed as tumor growth inhibition at 50 mg/kg, ip measured for 16 days; assay type: functional; conditions: JeKo-1, 384 h, time 16 day, read-out: TGI
JeKo-1 [5] = assay: Antitumor activity against human JeKo-1 cells xenografted NOD/SCID mouse assessed as reduction in tumor weight at 50 mg/kg, ip measured for 16 days; assay type: functional; conditions: time 16 day
MV4-11 [6] = assay: cells; conditions: Homo sapiens, MV4-11, 72 h
MOLT-4 = assay: cells; conditions: Homo sapiens, MOLT-4, 72 h
Description: Antiproliferative activity against human MOLT-4 cells assessed as inhibition of cell growth incubated for 72 hrs by CCK8 assay

K562 = assay: cells; conditions: Homo sapiens, K562, 72 h
Description: Antiproliferative activity against human K562 cells assessed as inhibition of cell growth incubated for 72 hrs by CCK8 assay

[7] = Metabolic stability in human liver microsome assessed as half life preincubated with compound for 5 mins followed by NADPH addition and measured upto 60 mins by LC-MS/MS analysis; assay type: ADME; conditions: liver microsomes, time < 65 min
[8] = Metabolic stability in human liver microsome assessed as intrinsic clearance preincubated with compound for 5 mins followed by NADPH addition and measured upto 60 mins by LC-MS/MS analysis; assay type: ADME; conditions: liver microsomes, time < 65 min, read-out: CLH
[9] = target: Tyrosine-protein kinase BTK (Homo sapiens, UniProt Q06187); assay: Inhibition of BTK (unknown origin) incubated for 40 mins by radiometric kinase assay
JeKo-1 [10] = assay: Induction of apoptosis in human JeKo-1 cells assessed as viable cells at 750 nM incubated for 72 hrs by Annexin VFITC/PI staining based flow cytometry analysis (reference value: 94.81%); assay type: functional
JeKo-1 [11] = assay: Induction of apoptosis in human JeKo-1 cells assessed as early apoptotic cells at 750 nM incubated for 72 hrs by Annexin VFITC/PI staining based flow cytometry analysis (reference value: 3.10%); assay type: functional
JeKo-1 [12] = assay: Induction of apoptosis in human JeKo-1 cells assessed as late apoptotic cells at 750 nM incubated for 72 hrs by Annexin VFITC/PI staining based flow cytometry analysis (reference value: 1.42%); assay type: functional
JeKo-1 [13] = assay: Induction of apoptosis in human JeKo-1 cells assessed as necrotic cells at 750 nM incubated for 72 hrs by Annexin VFITC/PI staining based flow cytometry analysis (reference value: 0.67%); assay type: functional
MV4-11 [14] = assay: Antitumor activity against human MV4-11 cells xenografted NOD/SCID mouse assessed as increase in tumor necrotic cells at 20 mg/kg, ip administered once daily for 21 days by H and E staining analysis; assay type: functional, organism-based; conditions: time 21.0 day

Tyrosine-protein kinase BTK, sequence (Q06187 whole entry): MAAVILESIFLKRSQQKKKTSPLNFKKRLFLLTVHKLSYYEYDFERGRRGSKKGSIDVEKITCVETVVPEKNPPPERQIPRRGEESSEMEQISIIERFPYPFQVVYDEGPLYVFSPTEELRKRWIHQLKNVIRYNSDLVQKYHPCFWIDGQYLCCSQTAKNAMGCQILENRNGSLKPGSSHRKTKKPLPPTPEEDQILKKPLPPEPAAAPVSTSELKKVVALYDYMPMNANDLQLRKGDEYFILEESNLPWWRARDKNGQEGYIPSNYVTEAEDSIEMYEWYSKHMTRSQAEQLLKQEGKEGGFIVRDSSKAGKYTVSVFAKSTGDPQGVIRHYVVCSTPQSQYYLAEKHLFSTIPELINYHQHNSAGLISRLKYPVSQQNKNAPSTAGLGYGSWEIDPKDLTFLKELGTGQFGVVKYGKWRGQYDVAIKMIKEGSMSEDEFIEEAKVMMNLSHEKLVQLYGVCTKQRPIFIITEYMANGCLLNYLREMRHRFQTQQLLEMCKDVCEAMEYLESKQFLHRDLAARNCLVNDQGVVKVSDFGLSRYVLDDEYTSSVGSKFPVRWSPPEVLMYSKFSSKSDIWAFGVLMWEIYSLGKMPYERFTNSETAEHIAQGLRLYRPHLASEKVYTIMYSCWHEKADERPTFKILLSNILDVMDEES

SMILES: NNC(=O)c1ccc(Nc2nc(Nc3ccc(N4CCCCC4)cc3)ncc2F)cc1
- IC50 (JeKo-1 [1]): > 2000 nM

SMILES: COc1cc(N2CCN(C)CC2)ccc1Nc1ncc(F)c(Nc2ccc(C(=O)NN)cc2)n1
- IC50 (JeKo-1 [1]): > 2000 nM

SMILES: C[C@H]1O[C@@H](O[C@H]2[C@@H](O)C[C@H](O[C@H]3[C@@H](O)C[C@H](O[C@H]4CC[C@@]5(C)[C@H](CC[C@@H]6[C@@H]5C[C@@H](O)[C@]5(C)[C@@H](C7=CC(=O)OC7)CC[C@]65O)C4)O[C@@H]3C)O[C@@H]2C)C[C@H](O)[C@@H]1O [DIGOXIN]
- Papp A→B at 2 h (in vitro [2]): 0.25 ×10⁻⁶ cm/s
- Papp B→A at 2 h (in vitro [3]): 11.2 ×10⁻⁶ cm/s
- efflux ratio at 2 h (P-glycoprotein): 44.1

SMILES: NNC(=O)c1ccccc1Nc1nc(Nc2ccc(N3CCCCC3)cc2)ncc1F
- IC50 (JeKo-1 [1]): 1880 nM

SMILES: COc1cc(N2CCN(C)CC2)ccc1Nc1ncc(F)c(Nc2cccc(C(=O)NN)c2)n1
- IC50 (JeKo-1 [1]): > 2000 nM

SMILES: NNC(=O)c1cccc(Nc2nc(Nc3ccc(N4CCCCC4)cc3)ncc2F)c1
- IC50 (JeKo-1 [1]): 1240 nM

SMILES: CCN1CCN(c2ccc(Nc3ncc(F)c(Nc4ccc(C(=O)NN)cc4)n3)cc2)CC1
- IC50 (JeKo-1 [1]): 1750 nM

SMILES: C=CC(=O)Nc1cccc(Nc2nc(Nc3ccc(OCCOC)cc3)ncc2F)c1 [SPEBRUTINIB]
- inhibition in vivo at 50 mg/kg (JeKo-1 [4]): 38.1%
- Activity (JeKo-1 [5]): 0.69 g
- IC50 (JeKo-1 [1]): 1480 nM
- IC50 (MV4-11 [6]): 245 nM
- IC50 (MOLT-4): 1460 nM
- IC50 (K562): 7400 nM

SMILES: CN1CCN(c2ccc(Nc3ncc(F)c(Nc4cccc(C(=O)NN)c4)n3)cc2)CC1
- IC50 (JeKo-1 [1]): 562 nM

SMILES: NNC(=O)c1ccc(Nc2nc(Nc3ccc(N4CCOCC4)cc3)ncc2F)cc1
- IC50 (JeKo-1 [1]): > 2000 nM

SMILES: O=C(O)Cc1ccccc1Nc1c(Cl)cccc1Cl [DICLOFENAC]
- half-life [7]: 5.44 min
- CLint scaled [8]: 230 mL/min/kg

SMILES: CCN1CCN(c2ccc(Nc3ncc(F)c(Nc4cccc(C(=O)NN)c4)n3)cc2)CC1
- IC50 (JeKo-1 [1]): 540 nM

SMILES: NNC(=O)c1ccccc1Nc1nc(Nc2ccc(N3CCOCC3)cc2)ncc1F
- IC50 [9]: 105 nM
- IC50 (JeKo-1 [1]): 88 nM
- IC50 (MV4-11 [6]): 41 nM
- IC50 (MOLT-4): 239 nM
- IC50 (K562): > 25000 nM

SMILES: CCN1CCN(c2ccc(Nc3ncc(F)c(Nc4ccccc4C(=O)NN)n3)cc2)CC1
- IC50 (JeKo-1 [1]): 1280 nM

SMILES: C=CC(=O)N1CCC[C@@H](n2nc(-c3ccc(Oc4ccccc4)cc3)c3c(N)ncnc32)C1 [IBRUTINIB]
- Activity (JeKo-1 [10]): 85.08%
- Activity (JeKo-1 [11]): 14.42%
- Activity (JeKo-1 [12]): 0.32%
- Activity (JeKo-1 [13]): 0.18%
- IC50 (JeKo-1 [1]): 1680 nM
- IC50 (MV4-11 [6]): 423 nM
- IC50 (MOLT-4): 3520 nM
- IC50 (K562): 5570 nM

SMILES: CNC(=O)c1cc(Oc2ccc(NC(=O)Nc3ccc(Cl)c(C(F)(F)F)c3)cc2)ccn1 [SORAFENIB]
- Activity (MV4-11 [14]): Active
- IC50 (JeKo-1 [1]): 1070 nM
- IC50 (MOLT-4): 2500 nM
- IC50 (K562): 7740 nM

SMILES: COc1cc(N2CCN(C)CC2)ccc1Nc1ncc(F)c(Nc2ccccc2C(=O)NN)n1
- IC50 (JeKo-1 [1]): > 2000 nM

SMILES: CN1CCN(c2ccc(Nc3ncc(F)c(Nc4cccc(C(=O)NN)c4)n3)cc2F)CC1
- IC50 (JeKo-1 [1]): 222 nM

SMILES: CN1CCN(c2ccc(Nc3ncc(F)c(Nc4ccc(C(=O)NN)cc4)n3)cc2)CC1
- IC50 (JeKo-1 [1]): 1410 nM

SMILES: NNC(=O)c1cccc(Nc2nc(Nc3ccc(N4CCOCC4)cc3)ncc2F)c1
- IC50 (JeKo-1 [1]): 801 nM

SMILES: CC(C)NCC(O)COc1cccc2ccccc12 (stereo unspecified) [PROPRANOLOL]
- Papp A→B at 2 h (in vitro [2]): 32.4 ×10⁻⁶ cm/s
- Papp B→A at 2 h (in vitro [3]): 20.1 ×10⁻⁶ cm/s
- efflux ratio at 2 h (P-glycoprotein): 0.62

SMILES: CN1CCN(c2ccc(Nc3ncc(F)c(Nc4ccc(C(=O)NN)cc4)n3)cc2F)CC1
- IC50 (JeKo-1 [1]): 1090 nM

SMILES: CN1CCN(c2ccc(Nc3ncc(F)c(Nc4ccccc4C(=O)NN)n3)cc2F)CC1
- IC50 [9]: 84 nM
- IC50 (JeKo-1 [1]): 52 nM
- IC50 (MV4-11 [6]): 31 nM
- IC50 (MOLT-4): 65 nM
- IC50 (K562): 690 nM
